Data as given in patent publication US6734205B2, “Substituted guanidine derivatives” (Sumitomo Pharmaceuticals Company Limited, priority 1999, dated 2004).
Counter-ions that a name gives are not always drawn.

Legend:
[1] = target: T1, Na^+/H^+ exchange transport system (Rattus norvegicus, UniProt P26431); experiment: Inhibitory effect on the Na^+/H^+ exchange transport system (in vitro), pH change in isolated ventricular myocytes under an acidic load; type: cell-based
T1 construct: a pH change in isolated ventricular myocytes (rat) under an acidic load; endogenous in cells; host or cells: isolated rat ventricular myocytes
T1 sequence (P26431 whole entry): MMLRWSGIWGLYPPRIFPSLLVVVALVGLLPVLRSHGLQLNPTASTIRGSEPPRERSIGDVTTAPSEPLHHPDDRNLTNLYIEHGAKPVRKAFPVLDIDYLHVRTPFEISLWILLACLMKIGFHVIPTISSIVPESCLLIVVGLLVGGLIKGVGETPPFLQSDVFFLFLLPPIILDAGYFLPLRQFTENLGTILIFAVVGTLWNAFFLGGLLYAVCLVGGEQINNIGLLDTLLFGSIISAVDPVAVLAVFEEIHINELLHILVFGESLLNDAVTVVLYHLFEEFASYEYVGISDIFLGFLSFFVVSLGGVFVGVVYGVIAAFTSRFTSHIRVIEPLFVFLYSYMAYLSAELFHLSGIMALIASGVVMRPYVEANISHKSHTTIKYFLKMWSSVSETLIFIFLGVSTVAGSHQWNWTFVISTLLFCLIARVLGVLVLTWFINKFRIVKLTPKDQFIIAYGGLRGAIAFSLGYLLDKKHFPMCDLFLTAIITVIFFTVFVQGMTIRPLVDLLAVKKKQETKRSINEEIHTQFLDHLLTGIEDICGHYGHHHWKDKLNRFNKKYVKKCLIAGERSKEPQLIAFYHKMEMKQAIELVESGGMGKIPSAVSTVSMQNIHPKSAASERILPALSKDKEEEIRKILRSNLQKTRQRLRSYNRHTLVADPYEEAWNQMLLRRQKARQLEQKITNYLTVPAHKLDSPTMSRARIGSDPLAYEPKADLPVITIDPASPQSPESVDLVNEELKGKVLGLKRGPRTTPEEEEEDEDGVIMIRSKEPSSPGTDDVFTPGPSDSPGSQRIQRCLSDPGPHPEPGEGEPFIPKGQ
Method: Inhibitory Effect on the Na^+/H^+ Exchange Transport System (in vitro)
A test was carried out according to the method of Iemori et al. (J. Hypertension, 8, 153(1990)). In detail, inhibitory effect on the Na^+/H^+ exchange transport system was evaluated by using as an indication a pH change in isolated ventricular myocytes (rat) under an acidic load.

SMILES	IC50 [1] [nM]	melting point
Cc1c(OS(=O)(=O)O)ccc2c1cc(C(=O)NC(=N)N)n2C [Example 1, 2-[[[amino(imino)methyl]amino]-carbonyl]-1,4-dimethyl-1H-indol-5-yl Hydrogen Sulfate]	10000	–
Cc1cc(OS(=O)(=O)O)cc2c1cc(C(=O)NC(=N)N)n2C [Example 2, 2-[[[Amino(imino)methyl]amino]carbonyl]-1,4-dimethyl-1H-indol-6-yl Hydrogen Sulfate]	70	–
Cc1ccc(OS(=O)(=O)O)c2c1cc(C(=O)NC(=N)N)n2C [Example 4, 2-[[[amino(imino)methyl]amino]-carbonyl]-1,4-dimethyl-1H-indol-7-yl Hydrogen Sulfate]	200	–
Cn1c(C(=O)NC(=N)N)cc2c(C(F)(F)F)cc(CCS(=O)(=O)O)cc21 [Example 39, 2-[2-[[[amino(imino)methyl]-amino]carbonyl]-1-methyl-4-(trifluoromethyl)-1H-indol-6-yl]ethanesulfonic Acid]	–	≥ 300 °C
Cn1c(C(=O)NC(=N)N)cc2c(C(F)(F)F)ccc(CCS(=O)(=O)O)c21 [Example 40, 2-[2-[[[Amino(imino)methyl]amino]carbonyl]-1-methyl-4-(trifluoromethyl)-1H-indol-7-yl]ethanesulfonic Acid]	–	≥ 300 °C
Cn1c(C(=O)NC(=N)N)cc2c(Cl)cc(CCS(=O)(=O)O)cc21 [Example 41, 2-[2-[[[Amino(imino)methyl]amino]carbonyl]-4-chloro-1-methyl-1H-indol-6-yl]ethanesulfonic Acid]	–	≥ 300 °C
Cc1cc(CCS(=O)(=O)O)cc2c1cc(C(=O)NC(=N)N)n2C [Example 42, 2-[2-[[[Amino(imino)methyl]amino]carbonyl]-1,4-dimethyl-1H-indol-6-yl]ethanesulfonic Acid]	–	≥ 300 °C (dec.)
Cn1c(C(=O)NC(=N)N)cc2c(C(F)(F)F)cc(OCP(=O)(O)O)cc21 [Example 45, [[2-[[[amino(imino)methyl]-amino]carbonyl]-1-methyl-4-(trifluoromethyl)-1H-indol-6-yl]oxy]-methylphosphonic Acid]	–	292 °C (dec.)
Cn1c(C(=O)NC(=N)N)cc2c(C(F)(F)F)ccc(OCP(=O)(O)O)c21 [Example 46, [[2-[[[Amino(imino)methyl]amino]carbonyl]-1-methyl-4-(trifluoromethyl)-1H-indol-7-yl]oxy]methylphosphonic Acid]	–	260 °C (dec.)
Cn1c(C(=O)NC(=N)N)cc2c(Cl)cc(OCP(=O)(O)O)cc21 [Example 47, [[2-[[[Amino(imino)methyl]amino]carbonyl]-4-chloro-1-methyl-1H-indol-6-yl]oxy]methylphosphonic Acid]	–	263 °C (dec.)
Cn1c(C(=O)NC(=N)N)cc2c(Cl)ccc(OCP(=O)(O)O)c21 [Example 48, [[2-[[[Amino(imino)methyl]amino]carbonyl]-4-chloro-1-methyl-1H-indol-7-yl]oxy]methylphosphonic Acid]	–	247 °C
Cc1cc(OCP(=O)(O)O)cc2c1cc(C(=O)NC(=N)N)n2C [Example 49, [[2-[[[Amino(imino)methyl]amino]carbonyl]-1,4-dimethyl-1H-indol-6-yl]oxy]methylphosphonic Acid]	–	≥ 300 °C
Cc1ccc(OCP(=O)(O)O)c2c1cc(C(=O)NC(=N)N)n2C [Example 50, [[2-[[[Amino(imino)methyl]amino]carbonyl]-1,4-dimethyl-1H-indol-7-yl]oxy]methylphosphonic Acid]	–	270 °C (dec.)
Cn1c(C(=O)NC(=N)N)cc2c(C(F)(F)F)cc(CCP(=O)(O)O)cc21 [Example 51, 2-[2-[[[amino(imino)methyl]-amino]carbonyl]-1-methyl-4-(trifluoromethyl)-1H-indol-6-yl]ethylphosphonic Acid]	–	277 °C (dec.)
Cn1c(C(=O)NC(=N)N)cc2c(Cl)ccc(CCP(=O)(O)O)c21 [Example 53, 2-[2-[[[Amino(imino)methyl]amino]carbonyl]-4-chloro-1-methyl-1H-indol-7-yl]ethylphosphonic Acid]	–	256 °C (dec.)
Cc1cc(CCP(=O)(O)O)cc2c1cc(C(=O)NC(=N)N)n2C [Example 54, 2-[2-[[[Amino(imino)methyl]amino]carbonyl]-1,4-dimethyl-1H-indol-6-yl]ethylphosphonic Acid]	–	255 °C (dec.)
